Reference: patent US8884061B2, “Compositions and methods of use of electron transport system inhibitors” (priority 2006, dated 2014)
In brackets after ≈: the same amount, converted by molar mass.

Assays:
S. aureus ATCC 29213 = assay: MIC, other bacteria (Table 3); assay type: cell-based; conditions: inoculum size 10^6 CFU/ml
[1] = test system: S. aureus ATCC 43300 (MRSA); assay: MIC, other bacteria (Table 3); assay type: cell-based; conditions: inoculum size 10^6 CFU/ml
VRSA 2441-T0041 = assay: MIC, other bacteria (Table 3); assay type: cell-based, S. aureus; conditions: VRSA 2441-T0041, low level VCM-resistant; inoculum size 10^6 CFU/ml
VRSA 2441-T0044 = assay: MIC, other bacteria (Table 3); assay type: cell-based, S. aureus; conditions: VRSA 2441-T0044, low level VCM-resistant; inoculum size 10^6 CFU/ml
MRSA 2441-05104 = assay: MIC, other bacteria (Table 3); assay type: cell-based, S. aureus; conditions: inoculum size 10^6 CFU/ml
MRSA 2441-05112 = assay: MIC, other bacteria (Table 3); assay type: cell-based, S. aureus; conditions: inoculum size 10^6 CFU/ml
MRSA 2441-05129 = assay: MIC, other bacteria (Table 3); assay type: cell-based, S. aureus; conditions: inoculum size 10^6 CFU/ml
MRSA 2441-05223 = assay: MIC, other bacteria (Table 3); assay type: cell-based, S. aureus; conditions: inoculum size 10^6 CFU/ml
MRSA 2441-05254 = assay: MIC, other bacteria (Table 3); assay type: cell-based, S. aureus; conditions: inoculum size 10^6 CFU/ml
MRSA 2441-05262 = assay: MIC, other bacteria (Table 3); assay type: cell-based, S. aureus; conditions: inoculum size 10^6 CFU/ml
[2] = test system: S. epidermidis ATCC 12228; assay: MIC, other bacteria (Table 3); assay type: cell-based; conditions: inoculum size 10^6 CFU/ml
MRSE 2442-05030 = assay: MIC, other bacteria (Table 3); assay type: cell-based, S. epidermidis; conditions: inoculum size 10^6 CFU/ml
MRSE 2442-05047 = assay: MIC, other bacteria (Table 3); assay type: cell-based, S. epidermidis; conditions: inoculum size 10^6 CFU/ml
MRSE 2442-05053 = assay: MIC, other bacteria (Table 3); assay type: cell-based, S. epidermidis; conditions: inoculum size 10^6 CFU/ml
MRSE 2442-05060 = assay: MIC, other bacteria (Table 3); assay type: cell-based, S. epidermidis; conditions: inoculum size 10^6 CFU/ml
MRSE 2442-05110 = assay: MIC, other bacteria (Table 3); assay type: cell-based, S. epidermidis; conditions: inoculum size 10^6 CFU/ml
MRSE 2442-05118 = assay: MIC, other bacteria (Table 3); assay type: cell-based, S. epidermidis; conditions: inoculum size 10^6 CFU/ml
E. faecalis ATCC 29212 = assay: MIC, other bacteria (Table 3); assay type: cell-based; conditions: inoculum size 10^6 CFU/ml
[3] = test system: E. faecalis ATCC 51299 (VRE); assay: MIC, other bacteria (Table 3); assay type: cell-based; conditions: low level VCM-resistant, Van B, inoculum size 10^6 CFU/ml
[4] = test system: E. faecalis NCTC 12201 (VRE); assay: MIC, other bacteria (Table 3); assay type: cell-based; conditions: high level VCM-resistant, Van A, inoculum size 10^6 CFU/ml
E. faecium ATCC 49224 = assay: MIC, other bacteria (Table 3); assay type: cell-based; conditions: E. faecium ATCC 49224, GM-resistant; inoculum size 10^6 CFU/ml
[5] = test system: E. faecium NCTC 12203 (VRE); assay: MIC, other bacteria (Table 3); assay type: cell-based; conditions: high level VCM-resistant, Van A, inoculum size 10^6 CFU/ml
E. coli ATCC 25922 = assay: MIC, other bacteria (Table 3); assay type: cell-based; conditions: inoculum size 10^6 CFU/ml
K. pneumoniae ATCC 27736 = assay: MIC, other bacteria (Table 3); assay type: cell-based; conditions: inoculum size 10^6 CFU/ml
P. mirabilis ATCC 4630 = assay: MIC, other bacteria (Table 3); assay type: cell-based; conditions: inoculum size 10^6 CFU/ml
S. marsascens ATCC 14756 = assay: MIC, other bacteria (Table 3); assay type: cell-based; conditions: inoculum size 10^6 CFU/ml
P. aeruginosa ATCC 27853 = assay: MIC, other bacteria (Table 3); assay type: cell-based; conditions: inoculum size 10^6 CFU/ml
M. tuberculosis H37Rv = assay: MIC, agar (7H11) dilution method; assay type: cell-based; conditions: M. tuberculosis H37Rv
M. tuberculosis Kurono = assay: MIC, agar (7H11) dilution method; assay type: cell-based; conditions: M. tuberculosis Kurono; agar (7H11) dilution
M. bovis BCG Tokyo = assay: microbe, parasite or virus in culture; assay type: cell-based; conditions: M. bovis BCG Tokyo; agar (7H11) dilution
M. avium Flamingo = assay: MIC, agar (7H11) dilution method; assay type: cell-based
[6] = test system: M. intracellularae ATCC 15984; assay: MIC, agar (7H11) dilution method; assay type: cell-based
M. kansasii NIHJ1619 = assay: MIC, agar (7H11) dilution method; assay type: cell-based
M. aurum = assay: MIC, agar (7H11) dilution method; assay type: cell-based
M. fortuitum NIHJ1615 = assay: MIC, agar (7H11) dilution method; assay type: cell-based
M. smegmatis Takeo = assay: MIC, agar (7H11) dilution method; assay type: cell-based

SMILES	MIC (S. aureus ATCC 29213)	MIC [1]	MIC (VRSA 2441-T0041)	MIC (VRSA 2441-T0044)	MIC (MRSA 2441-05104)	MIC (MRSA 2441-05112)	MIC (MRSA 2441-05129)	MIC (MRSA 2441-05223)	MIC (MRSA 2441-05254)	MIC (MRSA 2441-05262)	MIC [2]	MIC (MRSE 2442-05030)	MIC (MRSE 2442-05047)	MIC (MRSE 2442-05053)	MIC (MRSE 2442-05060)	MIC (MRSE 2442-05110)	MIC (MRSE 2442-05118)	MIC (E. faecalis ATCC 29212)	MIC [3]	MIC [4]	other results
CN[C@H](CC(C)C)C(=O)N[C@H]1C(=O)N[C@@H](CC(N)=O)C(=O)N[C@H]2C(=O)N[C@H]3C(=O)N[C@H](C(=O)N[C@H](C(=O)O)c4cc(O)cc(O)c4-c4cc3ccc4O)[C@H](O)c3ccc(c(Cl)c3)Oc3cc2cc(c3O[C@@H]2O[C@H](CO)[C@@H](O)[C@H](O)[C@H]2O[C@H]2C[C@](C)(N)[C@H](O)[C@H](C)O2)Oc2ccc(cc2Cl)[C@H]1O [VCM, reference compound]	0.78 µg/mL (≈ 0.538 µM)	0.78 µg/mL (≈ 0.538 µM)	3.13 µg/mL (≈ 2.16 µM)	6.25 µg/mL (≈ 4.31 µM)	0.78 µg/mL (≈ 0.538 µM)	0.78 µg/mL (≈ 0.538 µM)	0.78 µg/mL (≈ 0.538 µM)	0.78 µg/mL (≈ 0.538 µM)	1.56 µg/mL (≈ 1.08 µM)	0.78 µg/mL (≈ 0.538 µM)	1.56 µg/mL (≈ 1.08 µM)	3.13 µg/mL (≈ 2.16 µM)	1.56 µg/mL (≈ 1.08 µM)	1.56 µg/mL (≈ 1.08 µM)	1.56 µg/mL (≈ 1.08 µM)	1.56 µg/mL (≈ 1.08 µM)	1.56 µg/mL (≈ 1.08 µM)	3.13 µg/mL (≈ 2.16 µM)	1.25 µg/mL (≈ 0.863 µM)	>100 µg/mL	MIC (E. faecium ATCC 49224): 3.13 µg/mL (≈ 2.16 µM); MIC [5]: >100 µg/mL; MIC (E. coli ATCC 25922): >100 µg/mL; MIC (K. pneumoniae ATCC 27736): >100 µg/mL; MIC (P. mirabilis ATCC 4630): >100 µg/mL; MIC (S. marsascens ATCC 14756): >100 µg/mL; MIC (P. aeruginosa ATCC 27853): >100 µg/mL
C=CCN(C)CCCCCCCCOc1ccc(C(=O)c2ccc(Cl)cc2)c(Cl)c1 [Cpd #20]	25 µg/mL (≈ 55.7 µM)	25 µg/mL (≈ 55.7 µM)	50 µg/mL (≈ 111 µM)	50 µg/mL (≈ 111 µM)	25 µg/mL (≈ 55.7 µM)	25 µg/mL (≈ 55.7 µM)	25 µg/mL (≈ 55.7 µM)	25 µg/mL (≈ 55.7 µM)	25 µg/mL (≈ 55.7 µM)	25 µg/mL (≈ 55.7 µM)	25 µg/mL (≈ 55.7 µM)	12.5 µg/mL (≈ 27.9 µM)	12.5 µg/mL (≈ 27.9 µM)	12.5 µg/mL (≈ 27.9 µM)	12.5 µg/mL (≈ 27.9 µM)	12.5 µg/mL (≈ 27.9 µM)	12.5 µg/mL (≈ 27.9 µM)	12.5 µg/mL (≈ 27.9 µM)	25 µg/mL (≈ 55.7 µM)	12.5 µg/mL (≈ 27.9 µM)	Minimum inhibitory concentrations (MIC) (M. tuberculosis H37Rv; table line r7 (1st of 5 so labelled)): 6.25 µg/mL (≈ 13.9 µM); Minimum inhibitory concentrations (MIC) (M. tuberculosis H37Rv; table line r8 (2nd of 5 so labelled)): 6.25 µg/mL (≈ 13.9 µM); Minimum inhibitory concentrations (MIC) (M. tuberculosis H37Rv; table line r9 (3rd of 5 so labelled)): 6.25 µg/mL (≈ 13.9 µM); Minimum inhibitory concentrations (MIC) (M. tuberculosis H37Rv; table line r10 (4th of 5 so labelled)): 6.25 µg/mL (≈ 13.9 µM); Minimum inhibitory concentrations (MIC) (M. tuberculosis H37Rv; table line r11 (5th of 5 so labelled)): 6.25 µg/mL (≈ 13.9 µM); Minimum inhibitory concentrations (MIC) (M. tuberculosis Kurono): 6.25 µg/mL (≈ 13.9 µM); Minimum inhibitory concentrations (MIC) (M. bovis BCG Tokyo): 6.25 µg/mL (≈ 13.9 µM); Minimum inhibitory concentrations (MIC) (M. avium Flamingo): 12.5 µg/mL (≈ 27.9 µM); Minimum inhibitory concentrations (MIC) [6]: 12.5 µg/mL (≈ 27.9 µM); Minimum inhibitory concentrations (MIC) (M. kansasii NIHJ1619): 12.5 µg/mL (≈ 27.9 µM); Minimum inhibitory concentrations (MIC) (M. aurum): 12.5 µg/mL (≈ 27.9 µM); Minimum inhibitory concentrations (MIC) (M. fortuitum NIHJ1615): >25 µg/mL; Minimum inhibitory concentrations (MIC) (M. smegmatis Takeo): 25 µg/mL (≈ 55.7 µM); MIC (E. faecium ATCC 49224): 12.5 µg/mL (≈ 27.9 µM); MIC [5]: 12.5 µg/mL (≈ 27.9 µM); MIC (E. coli ATCC 25922): >100 µg/mL; MIC (K. pneumoniae ATCC 27736): >100 µg/mL; MIC (P. mirabilis ATCC 4630): >100 µg/mL; MIC (S. marsascens ATCC 14756): >100 µg/mL; MIC (P. aeruginosa ATCC 27853): >100 µg/mL
